Legend:
[1] = Stability in phosphate buffer (pH 7.4, 37 °C) followed by UV–Vis over 24 h; assay type: physicochemical; details: 50 µM
Experimental: (§1) The stability of the gold complexes was analyzed by absorption UV spectroscopy. UV–Vis absorption spectra of the complexes were recorded on a Thermo Scientific spectrophotometer (Madrid, Spain). Solutions of C1–6 (5 × 10^−5 M) in 10 mM phosphate buffer (pH = 7.4, 137 mM NaCl) were prepared from 20 mM DMSO solutions of the complexes and thereafter monitored by measuring the electronic spectra over 24 h at 37 °C. To evaluate the stability in the presence of biological reductants, all complexes were pre-solved in a minimum amount of DMSO and then diluted in 10 mM phosphate buffer (pH 7.4, 20 mM NaCl) to a final concentration of 10 µM [41]. All experiments were measure on a quartz microplate. Studies with L-glutathion reduced (GSH) and ascorbic acid (AsA) were conducted by increasing the final concentration of 0 to 50 µM (GSH) and from 0–20 µM for AsA.
Due to the aqueous nature of the bloodstream, studies to understand the behavior of our complexes in such an environment were considered necessary in order to determine the stability in simulated physiological conditions, pH = 7.4 and 37 °C. […] Besides, in the cases of complexes C1–4, a low-intensity broad band was detected (322 nm) (Figure 2 and Figure S3). […]
This is usually associated with the formation of Au(III)-OH bonds, increasing the water solubility and, consequently, the intensity of absorbance. […]

[2] = Stability in the presence of reduced L-glutathione (GSH), UV–Vis; assay type: physicochemical; details: GSH 0–50 µM, PBS, 37 °C, 24 h
Experimental: as §1
This is usually associated with the formation of Au(III)-OH bonds, increasing the water solubility and, consequently, the intensity of absorbance. […] We observed that our complexes were stable with the addition of GSH over 24 h, even in a high excess of GSH to Au(III) complexes (50 vs. 16 µM) (Figure S4), since no evidence of decomposition or new bands was detected. […]

SMILES | Stability in PBS (UV–Vis spectra over time) [1] | Stability towards GSH (UV–Vis spectra) [2]
Cc1ccc(-c2ccccn2)[c]([Au+][S]C(=S)N(C)C)c1.F[P-](F)(F)(F)(F)F [Complex C1, [Au(tpy)(dmdtc)] PF6] | absence of new bands around 550 nm | 
CCN(CC)C(=S)[S][Au+][c]1cc(C)ccc1-c1ccccn1.F[P-](F)(F)(F)(F)F [Complex C3, [Au(tpy)(dedtc)]PF6] |  | slight changes in intensity
Cc1ccc2[c](c1)[Au-]1([S]C(N(Cc3ccccc3)Cc3ccccc3)=[S+]1)[n+]1ccccc1-2.F[P-](F)(F)(F)(F)F (stereo not shown) [Complex C5, [Au(tpy)(dbdtc)]PF6] | slight increase in the intensity of 328 nm band | 
CN(C)C(=S)[S][Au+][c]1ccccc1-c1ccccn1.F[P-](F)(F)(F)(F)F [Complex C2, [Au(ppy)(dmdtc)]PF6] |  | slight changes in intensity

— article PMC8698672, “Selective Anticancer and Antimicrobial Metallodrugs Based on Gold(III) Dithiocarbamate Complexes” (Biomedicines, 2021)
